Reference: patent publication US7759399B2, “Pharmaceutical compositions” (priority 2002, dated 2010)
Read-outs that look alike come from different tables or passages of the source.

Assays:
[1] = system: Sendai virus; test: Sendai virus replication in 37RC cells (virus yield by HAU titration); format: cell-based; conditions: Respirovirus muris, 5 HAU/10^5 cells, virus yield at 24 hours after infection, read-out: ID50 (50% inhibitory dose/concentration), Sendai virus yield
[2] = system: NF-κB; test: EMSA of NF-κB DNA-binding activity in TPA-stimulated Jurkat T cells; format: cell-based, Human; conditions: Jurkat T cells treated 1 hour, then TPA 25 ng/ml, extracts after 3 hours; FIGS. 1(b)-6(b)
Protocol: Methods: Human lymphoblastoid Jurkat T cells were grown at 37° C. in a 5% CO2 atmosphere in RPM1 1640 medium (GIBCO BRL, Gaithersburg, Md.) supplemented with 10% fetal calf serum (FCS, Hyclone Europe Ltd, UK) 2 mM glutamine and antibiotics according to the method described by A. Rossi et al. (Proc. Natl. Acad. Sci. USA 94: 746-750, 1997). The test compounds were stored as a 100% ethanolic stock solution (100 mM) or in DMSO (100 mM) and diluted to the appropriate concentration in culture medium at the time of use. Cells were treated with different concentrations of test compound for 1 hour and then stimulated with 12-O-tetradecanoylphorbol-13-acetate (TPA, 25 ng/ml), which is a strong inducer of NF-κB. Control cells received an equal amount of control diluent. After 3 hours whole-cell extracts were prepared and subjected to analysis of DNA-binding activity by EMSA (Electrophoretic Mobility Shift Assay) for detection of HSF or NF-κB activation, according to the method described by A. Rossi et al. (Proc. Natl. Acad. Sci. USA 94: 746-750, 1997).
Specificity of protein-DNA complexes was verified by immunoreactivity with polyclonal antibodies specific for p65 (Rel A) or for HSF-1, for NF-κB and HSF respectively. Quantitative evaluation of NF-κB and HSF-DNA complex formation was determined by Molecular Dynamics Phosphorimager (MDP) analysis and was expressed in arbitrary units, as described in A. Rossi et al. (J. Biol. Chem. 273: 16446-16452, 1998). The results from representative experiments are shown in FIGS. 1(b), 2(b), 3(b), 4(b), 5 and 6(b) for compounds CTM-50, CTM-49, CTM-36, CTM-30, CTC-130 and CTC-109, as identified above.

[3] = system: uninfected 37RC cells; conditions: monkey
[4] = system: NF-κB; test: NF-κB-dependent luciferase reporter gene assay, HeLa κB-transformed cells, TPA stimulated; format: cell-based; conditions: Homo sapiens, HeLa, 8 h treatment, TPA 25 ng/ml 2 h after exposure, read-out: NF-κB, IC50 (concentration at which the compound halved the NF-κB activity)
Protocol: (§1) Method: HeLa cell clone 13B, stably transfected with a luciferase reporter plasmid controlled by the human hsp70 promoter, and HeLa κB-transformed cells, stably transfected with a luciferase reporter plasmid controlled by a synthetic NF-κB-STM construct, were maintained in DMEM medium supplemented with 10% FBS, L-glutamine (2 mM) and G418 (250 μg/ml) at 37° C. in a 5% CO2 humidified atmosphere.
(§2) Cells were seeded at a density of 4×10^4 cells/well in 96-well plates. After 18-20 h, the medium was removed and cells were treated for 8 h with the test compounds (100 μl) at the appropriate dilutions in serum-free medium. For the NF-κB-dependent reporter gene assay, cells were stimulated with TPA (25 ng/ml) 2 h after exposure to the compounds.
(§3) After incubation, the medium was removed and cells were lysed in 10 μl of lysis buffer. The luciferase activity was determined by adding 100 μl of substrate and measuring the release of light using a Victor 1420 microplate reader (Wallac, Finland).
(§4) The fragment Kpn I-BamH I from the pGL3 basic vector containing the luciferase gene (PROMEGA) was inserted in the pcDNA3 vector (INVITROGEN) digested with Bgl II-KpnI. (This digestion removes the CMV-promoter from pcDNA3.) The resulting new vector was digested with Kpn I-Hind III and a promoter containing a ‘5xNF-κB binding sites—TATA box’ sequence was inserted upstream of the luciferase gene. This vector has been named STM.
(§5) To obtain stable HeLa cell lines expressing the luciferase gene under the control of NF-κB, HeLa cells were transfected (using lipofectamine plus GIBCO) with the STM-Pvu I linearized vector, and selected for 20 days with G418 (800 μg/ml). After selection, the resistant HeLa cell pool was controlled (in quadruplicate samples) for luciferase activity after stimulation with TNFα, IL-1 and TPA.
(§6) The AC200/μM for HSF is the concentration at which the tested compound doubled the HSF activity in this assay. The IC50/μM for NF-κB is the concentration at which the tested compound halved the NF-κB activity in this assay.

[5] = in vitro; format: cell-based; conditions: 37RC cells, 24 h treatment; read-out: LC50 (50% lethal dose/concentration), Neutral Red
Protocol: Cell viability was determined using the Neutral Red assay. 37RC cells were seeded at density of 6×10^4 cells/well in 24-well plates and incubated for 24 h. Confluent 37RC monolayers were treated with the test compounds at different dilutions for 24 h at 37° C. After incubation, the medium was removed and the cells were incubated with RPMI medium containing 40 μg/ml Neutral Red dye (500 μl/well). After 2 h at 37° C., the monolayers were washed with phosphate-buffered saline (PBS) and then with a solution containing 1% CaCl2 and 0.5% formaldehyde. After washing, a solution containing 1% acetic acid/50% ethanol was added to the monolayers (250 μl/well). After 10 min at room temperature, the absorbance was determined with a microplate reader (Victor 1420, Wallac) at 540 nm.

[6] = system: HSF; test: HSF luciferase reporter assay, HeLa cell clone 13B (human hsp70 promoter); format: cell-based; conditions: 8 h, HeLa clone 13B, 8 h treatment, serum-free medium, read-out: HSF, AC200 (concentration at which the compound doubled the HSF activity)
Protocol: as §1, §2, §3, §6

[7] = doses from 30 μg/kg/min; cited from earlier work
[8] = system: NF-κB; test: Luciferase activity of G418-resistant HeLa cell pool transfected with NF-κB-LUC after stimulation; format: cell-based; conditions: NF-κB-LUC (STM vector), quadruplicate samples, control 1369±149
Text: as §4, §5

[9] = system: uninfected 37RC cells; test: Toxicity to uninfected cells, determined visually by microscopy (TD100)
[10] = Alamar Blue cytotoxicity assay; format: cell-based; conditions: human
Protocol: HeLa cells were plated in 96-well microtiter plates in 100 μl culture medium (4×10^4/well). After 20 hours, the cells were exposed to the test compounds at different dilutions and incubated for the next 8 h at 37° C. in a 5% CO2 humidified atmosphere. After 6 h incubation, the Alamar Blue was added in an amount equal to 10% of the culture volume (10 μl). Two hours after the addition of the Alamar Blue, the fluorescence was measured using a Victor 1420 microplate reader.
The LC50/μM is the concentration at which the tested compound killed half the cells in this assay.

## COC(=O)[C@H](CSC1=CC(=O)CC1)NC(=O)OC(C)(C)C [CTM-50]
[1]; 24 h
  IC50: 10 µM
[2]
  NF-κB-DNA complex formation (EMSA), result in words: inhibitors of NF-κB
[3]
  TD100 (dose or concentration at which the compound was 100% toxic to uninfected cells): >500 µM

## CC(C)(C)C(=O)OC1[C@H](Sc2ccc3ccccc3c2)CC(=O)C1(C)C (stereo in doubt) [CTM-193, 2,2-dimethylpropionic acid (1S,5R)-2,2-dimethyl-5-(naphthalen-2-ylsulfanyl)-3-oxocyclopentyl ester]
[4]
  IC50: 32 µM
[1]; 24 h
  IC50: 3 µM
[5]
  CC50 at 24 h: 23 µM
[6]
  EC (2-fold): 26 µM
[3]
  TD100 (dose or concentration at which the compound was 100% toxic to uninfected cells): 50 µM

## CCCCC[C@H](O)/C=C/[C@H]1[C@H](O)CC(=O)[C@@H]1CCCCCCC(=O)O [Prostaglandin E1]
[7]
  effect on blood pressure: dose-dependant falls in blood pressure

## COC(=O)[C@H](CSC1C=C(C(SC[C@H](NC(=O)OC(C)(C)C)C(=O)OC)C(C)C)C(=O)C1)NC(=O)OC(C)(C)C (some centres unmarked) [CTC-130]
[2]
  NF-κB-DNA complex formation (EMSA), result in words: inhibitors of NF-κB

## TNFα
[8]
  luciferase activity: 6111±1231

## CC(C)(C)C(=O)OC1[C@@H](Sc2ccc3ccccc3c2)CC(=O)C1(C)C (stereo in doubt) [CTM-191, 2,2-dimethylpropionic acid (1R,5S)-2,2-dimethyl-5-(naphthalen-2-ylsulfanyl)-3-oxocyclopentyl ester]
[4]
  IC50: 25 µM
[1]; 24 h
  IC50: 4 µM
[5]
  CC50 at 24 h: 24 µM
[6]
  EC (2-fold): 18 µM
[3]
  TD100 (dose or concentration at which the compound was 100% toxic to uninfected cells): 50 µM

## COC(=O)[C@H](CSC1CCC(=O)C1)NC(=O)OC(C)(C)C (some centres unmarked) [CTM-49]
[1]; 24 h
  IC50: 20 µM
[2]
  NF-κB-DNA complex formation (EMSA), result in words: inhibitors of NF-κB
[3]
  TD100 (dose or concentration at which the compound was 100% toxic to uninfected cells): >500 µM

## COC(=O)[C@H](CSC1CC(=O)C[C@@H]1O[Si](C)(C)C(C)(C)C)NC(=O)OC(C)(C)C (some centres unmarked) [CTM-36]
[1]
  IC50: 4 µM
[2]
  NF-κB-DNA complex formation (EMSA), result in words: inhibitors of NF-κB
[9]
  TD100 (dose or concentration at which the compound was 100% toxic to uninfected cells): >500 µM

## COC(=O)c1ccccc1S[C@H]1CC(=O)C[C@@H]1O[Si](C)(C)C(C)(C)C [CTM-82]
[10]
  CC50 at 8 h: > 800 µM
[4]
  IC50: 54 µM
[1]
  IC50: 1 µM
[5]
  CC50 at 24 h: 16 µM
[6]
  EC (2-fold): 35 µM
[9]
  TD100 (dose or concentration at which the compound was 100% toxic to uninfected cells): 50 µM

## Cc1cc(C)n(CCS[C@H]2CC(=O)C[C@@H]2O[Si](C)(C)C(C)(C)C)n1 [CTM-109]
[10]
  CC50 at 8 h: 267 µM
[4]
  IC50: > 100 µM
[1]
  IC50: 4 µM
[5]
  CC50 at 24 h: 33 µM
[6]
  EC (2-fold): 29 µM
[9]
  TD100 (dose or concentration at which the compound was 100% toxic to uninfected cells): 50 µM

## COC(=O)[C@H](CSC1C=CC(=O)C1)NC(=O)OC(C)(C)C (some centres unmarked) [CTC-109]
[1]; 24 h
  IC50: 3 µM
[2]
  NF-κB-DNA complex formation (EMSA), result in words: inhibitors of NF-κB
[3]
  TD100 (dose or concentration at which the compound was 100% toxic to uninfected cells): 500 µM

## COc1ccc(S[C@H]2CC(=O)C[C@@H]2O[Si](C)(C)C(C)(C)C)cc1 [CTM-169]
[10]
  CC50 at 8 h: > 800 µM
[4]
  IC50: 38 µM
[1]
  IC50: 1.5 µM
[5]
  CC50 at 24 h: 22 µM
[6]
  EC (2-fold): 26 µM
[9]
  TD100 (dose or concentration at which the compound was 100% toxic to uninfected cells): 50 µM

## CC(C)(C)[Si](C)(C)O[C@H]1CC(=O)C[C@@H]1SCCS(=O)(=O)O [CTM-165]
[10]
  CC50 at 8 h: > 800 µM
[4]
  IC50: 50 µM
[1]
  IC50: 1 µM
[5]
  CC50 at 24 h: 21 µM
[6]
  EC (2-fold): 26 µM
[9]
  TD100 (dose or concentration at which the compound was 100% toxic to uninfected cells): 50 µM

## CCCCCCCCCCCCCC(=O)O[C@@H]1[C@@H](C)[C@@]2(O)[C@@H](C=C(CO)C[C@]3(O)C(=O)C(C)=C[C@@H]23)[C@@H]2C(C)(C)[C@]12OC(C)=O [TPA, 12-O-tetradecanoylphorbol-13-acetate]
[8]
  luciferase activity: 7181±444

## CC(S[C@H]1CC(=O)C[C@@H]1O[Si](C)(C)C(C)(C)C)C(=O)NCC(=O)O (some centres unmarked) [CTM-110]
[10]
  CC50 at 8 h: > 800 µM
[4]
  IC50: > 100 µM
[1]
  IC50: 1 µM
[5]
  CC50 at 24 h: 18 µM
[6]
  EC (2-fold): 27 µM
[9]
  TD100 (dose or concentration at which the compound was 100% toxic to uninfected cells): 50 µM

## COC(=O)CS[C@H]1CC(=O)C[C@@H]1O[Si](C)(C)C(C)(C)C [CTM-87]
[10]
  CC50 at 8 h: 260 µM
[4]
  IC50: 52 µM
[1]
  IC50: 4 µM
[5]
  CC50 at 24 h: 38 µM
[6]
  EC (2-fold): 48 µM
[9]
  TD100 (dose or concentration at which the compound was 100% toxic to uninfected cells): 50 µM

## CC(=O)N[C@@H](CS[C@H]1CC(=O)C[C@@H]1O[Si](C)(C)C(C)(C)C)C(=O)OC(C)(C)C [CTM-106]
[10]
  CC50 at 8 h: 536 µM
[4]
  IC50: > 100 µM
[1]
  IC50: 4 µM
[5]
  CC50 at 24 h: 28 µM
[6]
  EC (2-fold): 26 µM
[9]
  TD100 (dose or concentration at which the compound was 100% toxic to uninfected cells): 50 µM
